Here are results for 21 molecules from patent publication US9238034B2, “FN14 antagonists and therapeutic uses thereof” (THE TRANSLATIONAL GENOMICS RESEARCH INSTITUTE, priority 2013, dated 2016).

Read-outs that look alike come from different tables or passages of the source. A value given as a limit tells only on which side of the number the result lay.

The assay addresses T1, Fn14-TWEAK binding (Homo sapiens, UniProt Q9NP84).
T1 construct: the human Fc fragment-tagged Fn14 extracellular domain (R&D Systems) was captured; purchased R&D Systems (Fn14-Fc); Peprotech (recombinant TWEAK)
T1 sequence (Q9NP84 28-80 limits assumed): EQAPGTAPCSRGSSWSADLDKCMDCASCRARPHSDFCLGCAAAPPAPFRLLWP
The assay is described as follows: Double sandwich ELISA small molecule screening of TWEAK binding to captured Fn14-Fc. On the procedure:
Double Sandwich ELISA. sTWEAK and sTWEAK variant proteins were synthesized as described above. The expression level of each IVTT synthesized sTWEAK protein was analyzed by western blot analysis and used in approximately equal amounts in the ELISA. To assay the binding of wild type sTWEAK and sTWEAK variants to Fn14, the human Fc fragment-tagged Fn14 extracellular domain (R&D Systems) was captured in an Immuno 96-microwell white plate by adding 100 μL of 0.025 μg/mL Fn14-Fc to wells coated with goat anti-human Fcγ fragment specific monoclonal antibody. After capture, the wells were washed 3× with Dulbecco's Phosphate Buffered Saline (DPBS) containing 0.05% Tween-20. Unbound sites were blocked by addition of 100 μL of blocking solution containing 0.05% Tween-20, 1% BSA, and 3% normal goat serum (NGS) in DPBS for 1 hr at room temperature. 0.01 μL of sTWEAK or sTWEAK variant made with the human IVTT kit or 2 μL of sTWEAK or sTWEAK variant made with the rabbit IVTT kit was diluted in 100 μL of sample diluent (DPBS+1% BSA+0.005% Tween-20) and then added to the wells for 2 hr followed by addition of 100 μL of 50 ng/mL biotinylated TWEAK detection antibody (R&D Systems) in sample diluent. Following incubation for additional 2 hr at room temperature, wells were washed 3× with DPBS containing 0.05% Tween-20 and bound biotinylated TWEAK antibody was detected by incubation with an HRP-conjugated streptavidin. The total luminescent signal was obtained using Femto ELISA kit (Pierce Biochemical) and compared to the standard curve signal obtained from the binding of 0-4000 pg/mL recombinant TWEAK (Peprotech inc) to Fn14-Fc. Using 5-parameter logistic curve fitting for standard curve analysis (Sigmaplot 11.0, SyStat Software Inc.), binding of sTWEAK or TWEAK variant to Fn14-Fc was determined. The data represents that observed for at least four replicate assays.
The small molecule screening was performed using the ELISA assay described above with minor modifications. Briefly, after capturing Fn14-Fc in the microwell plate, 80 μl of drug solution in sample diluent was added to desired wells and incubated for 2 hrs at room temperature. Subsequently, 20 μL of 2500 pg/mL (5×) TWEAK was added to each well to achieve final TWEAK concentration of 500 pg/mL and incubated for additional 2 hr at room temperature. Bound TWEAK was detected as described in the protocol above. All small molecule inhibitors were screened at 25 μM final concentration (final DMSO concentration of 0.125%) in duplicate. Cyclohexamide, a non-specific small molecule, at 25 μM concentration was used as negative control. The anti-Fn14 antibody ITEM-4, added at 2.5 μg/mL, was used as a positive control for complete blockade of TWEAK binding. Reduction in TWEAK binding due to compound addition or controls was calculated by using standard curve (Separate standard curve was obtained for every screening plate).
(An ELISA detects its analyte on a solid surface through an enzyme-linked reagent.)

[1] abbreviates: Table 5, 25 μM, average of duplicate, read-out: % Reduction in TWEAK Binding, Average.
[2] abbreviates: Table 5, 25 μM, replicate 1, read-out: % Reduction in TWEAK Binding, Data 1.
Where [3] appears, read: Table 5, 25 μM, replicate 2, read-out: % Reduction in TWEAK Binding, Data 2.
[4] abbreviates: Table 4, second screening iteration, 25 μM, average of duplicate, read-out: % Reduction in TWEAK Binding, Average.
Where [5] appears, read: Table 4, second screening iteration, 25 μM, replicate 1, read-out: % Reduction in TWEAK Binding, Data 1.
Where [6] appears, read: Table 4, second screening iteration, 25 μM, replicate 2, read-out: % Reduction in TWEAK Binding, Data 2.
Where [7] appears, read: second screening iteration, 25 μM, average, read-out: inhibition of TWEAK binding to Fn14.
The mark [8] stands for this setting: Table 3, first round of screening, 25 μM, average of duplicate, read-out: % Reduction in TWEAK Binding, Average.
[9] abbreviates: Table 3, first round of screening, 25 μM, replicate 1, read-out: % Reduction in TWEAK Binding, Data 1.
Setting [10] is: Table 3, first round of screening, 25 μM, replicate 2, read-out: % Reduction in TWEAK Binding, Data 2.

Regarding `CCS(=O)(=O)c1ccc(OCc2cc(=O)n3oc(C)cc3n2)c(NC(=O)COc2ccccc2C)c1`, the inhibition at 25 µM under setting [1] was found to be 19.6%, the inhibition at 25 µM under setting [2] came to 22.2% and the inhibition at 25 µM under setting [3] was found to be 17.1%.

As for `O=C(c1csc(S(=O)(=O)NCc2ccccn2)c1)N1CCCCCC1`, the inhibition at 25 µM reads like this: under setting [1], 12%; under setting [2], 15.3%; under setting [3], 8.76%.

`O=C(NCc1ccc(F)cc1)C1CCCN(c2nc3c(-c4ccccc4)csc3c(=O)[nH]2)C1` (centres unmarked): the inhibition at 25 µM turned out to be 22% under setting [1], 28.1% under setting [2] and 15.9% under setting [3].

For `O=C(NCc1ccncc1)C1CCCN(c2nc3c(-c4ccccc4)csc3c(=O)[nH]2)C1` (centres unmarked), the inhibition at 25 µM runs as follows: under setting [1], 14.3%; under setting [2], 13.4%; under setting [3], 15.2%.

On to `Cc1cc(NC(=O)CSc2ccccc2)ccc1Cl` [Compound 1068-0114], for which the inhibition at 25 µM by setting is: under setting [4], 13.4%; under setting [5], 21.9%; under setting [6], 4.93%; under setting [1], 13.4%; under setting [2], 21.9%; under setting [3], 4.93%.

For `COc1ccc(-c2nnc(SCC(=O)Nc3ccccc3OC)nc2-c2ccc(OC)cc2)cc1` [Compound 3809-1067], the inhibition at 25 µM runs as follows: under setting [4], 32.1%; under setting [5], 34.5%; under setting [6], 29.8%; under setting [1], 32.1%; under setting [2], 34.5%; under setting [3], 29.8%. The inhibition at 25 µM under setting [7] was 32.1%.

Regarding `O=C(CSc1cccc2cccnc12)Nc1ccc2ccccc2c1` [Compound 4084-0026], the inhibition at 25 µM under setting [4] is 11.1%; the inhibition at 25 µM under setting [5] worked out at 15.3%; the inhibition at 25 µM under setting [6] is 6.85%; the inhibition at 25 µM under setting [1] stood at 11.1%; the inhibition at 25 µM under setting [2] came to 15.3%; the inhibition at 25 µM under setting [3] turned out to be 6.85%.

In the case of `CCC(=O)Nc1ccccc1-c1ccccc1NC(=O)CC` [Compound 4478-7056], the inhibition at 25 µM reads like this: under setting [4], 16.5%; under setting [5], 15%; under setting [6], 18%; under setting [1], 16.5%; under setting [2], 15%; under setting [3], 18%.

With `O=C(CSc1nnc(-c2ccccc2)c(-c2ccccc2)n1)Nc1ccc(S(=O)(=O)Nc2nccs2)cc1` [Compound 4981-0539], the inhibition at 25 µM runs as follows: under setting [4], 11.7%; under setting [5], 11.3%; under setting [6], 12.2%; under setting [1], 11.7%; under setting [2], 11.3%; under setting [3], 12.2%.

As for `CCCSc1nnc(-c2ccccc2NC(=O)CC)c(O)n1` [Compound 5511-0142], the inhibition at 25 µM turned out to be 10.5% under setting [4]; 7.2% under setting [5]; 13.8% under setting [6]; 10.5% under setting [1]; 7.2% under setting [2]; 13.8% under setting [3].

Take `C=CCSc1nnc(-c2ccccc2NC(=O)CC)c(O)n1` [Compound 6969-1085]: the inhibition at 25 µM by setting is: under setting [4], 16.8%; under setting [5], 15.5%; under setting [6], 18%; under setting [1], 16.8%; under setting [2], 15.5%; under setting [3], 18%.

`CCCC(=O)Nc1ccccc1-c1nnc(SC)nc1O` [Compound 7033-0155]: the inhibition at 25 µM is, setting by setting: under setting [4], 20.2%; under setting [5], 19.5%; under setting [6], 20.9%; under setting [1], 20.2%; under setting [2], 19.5%; under setting [3], 20.9%.

In the case of `COc1ccc(-c2nnc(SCC(=O)Nc3cccc4ccccc34)nc2-c2ccccc2)cc1` [Compound 8014-3315], the inhibition at 25 µM under setting [4] is 15.7%; the inhibition at 25 µM under setting [5] was found to be 18.6%; the inhibition at 25 µM under setting [6] was determined as 12.7%; the inhibition at 25 µM under setting [1] was found to be 15.7%; the inhibition at 25 µM under setting [2] was determined as 18.6%; the inhibition at 25 µM under setting [3] turned out to be 12.7%.

For the molecule `Cc1cccc(-n2c(=O)c3[nH]c4ccccc4sc=3c2=O)c1` [Compound 8211-0292], the inhibition at 25 µM reads like this: under setting [4], 36.7%; under setting [5], 35.6%; under setting [6], 37.8%; under setting [1], 36.7%; under setting [2], 35.6%; under setting [3], 37.8%. Under setting [7], the inhibition at 25 µM was 36.7%.

Consider `Nc1ccccc1SCC(=O)Nc1cccc2nsnc12` [Compound 8415-09495], for which the inhibition at 25 µM reads like this: under setting [4], 19.5%; under setting [5], 17.8%; under setting [6], 21.2%; under setting [1], 19.5%; under setting [2], 17.8%; under setting [3], 21.2%.

For `Cc1cccc(NC(=O)CS(=O)(=O)c2ccccc2)c1` [Compound C200-5958], the “% Reduction in TWEAK Binding, Average” value (Table 4, second screening iteration, 25 μM, average of duplicate) was −5.743%. Moreover, the “% Reduction in TWEAK Binding, Data 2” value (Table 4, second screening iteration, 25 μM, replicate 2) is reported as −5.743%.

`CCn1c(=O)c(S(=O)(=O)c2ccccc2)c(O)c2ccccc21` [Compound C200-7197]: the inhibition at 25 µM reads like this: under setting [4], 26.3%; under setting [5], 27.4%; under setting [6], 25.1%; under setting [1], 26.3%; under setting [2], 27.4%; under setting [3], 25.1%.

In the case of `O=C1CN(C(=O)CSc2ccccc2)c2ccccc2N1` [Compound D479-0271], the inhibition at 25 µM by setting is: under setting [4], 19.7%; under setting [5], 20.9%; under setting [6], 18.5%; under setting [1], 19.7%; under setting [2], 20.9%; under setting [3], 18.5%.

On to `COc1ccc(C2N[C@H](C(=O)O)Cc3c2[nH]c2ccccc32)cc1O` (some centres unmarked) [Compound D715-0114], for which the inhibition at 25 µM turned out to be 10.3% under setting [8]; 0.98% under setting [9]; 19.6% under setting [10]; 10.3% under setting [1]; 0.98% under setting [2]; 19.6% under setting [3]. Under “first round of screening, 25 μM, read-out: single point activities / individual data points, inhibition of the Fn14-TWEAK interaction”, the inhibition at 25 µM was over 15%.

On to `COC(=O)[C@H]1Cc2c([nH]c3ccccc23)CN1` [Compound D715-0140], for which the inhibition at 25 µM is 11.7% under setting [8]; 9.77% under setting [9]; 13.6% under setting [10]; 11.7% under setting [1]; 9.77% under setting [2]; 13.6% under setting [3].

As for `O=C(Cc1c[nH]c2ccccc12)Nc1ccc2oc(=O)ccc2c1` [Compound D715-0817], the inhibition at 25 µM is, setting by setting: under setting [8], 10.3%; under setting [9], 9.04%; under setting [10], 11.5%; under setting [1], 10.3%; under setting [2], 9.04%; under setting [3], 11.5%.
